Patent publication US9023483B2, “Wood preservative compositions useful for treating copper-tolerant fungi” (Arch Timber Protection Limited, priority 2010, dated 2015)

Tested on: Serpula himantioides strain ATCC 64894
Assay: EN 113 wood block decay test, Serpula himantioides, 16 weeks
Type: cell-based
Excerpt: Five replicates were made per each treatment.
As shown in the above tables, the copper composition contains about 9% by weight copper, while both of the azole compositions contain about 10% by weight azole. The DQA cation was applied to the wood as a solution of 50 weight percent didecyldimethyl ammonium carbonate (DDACarbonate).
The wood samples were exposed for 16 weeks.

With “didecyldimethyl ammonium carbonate [DDACarbonate]” the “16 weeks of exposure Average weight loss % of untreated weight loss” value (Cu retention 0, DDACarbonate retention 0.25 Kg/m^3, 16 weeks) was 84%, the “16 weeks of exposure Average weight loss % of untreated weight loss” value (Cu retention 0, DDACarbonate retention 0.5 Kg/m^3, 16 weeks) was 67% and the “protection of wood against decay by Serpula himantioides (in words)” value (summary of the decay tests, 16 weeks) was “relatively little protection”.
